Experimental data reported in patent US8114900B2, “Amorphous carvedilol dihydrogen phosphate” (Teva Pharmaceutical Industries Ltd., priority 2006, dated 2012).
Read-outs that look alike come from different tables or passages of the source.

Assays:
[1] = Solubility of solid forms at pH=7 and 25° C.; type: physicochemical
Protocol: The amorphous form (1:1) of the present invention has higher solubility with compared to Form I at pH=7 and 25° C.: […]

[2] = cited from earlier work
[3] = Particle size dimensions from microscope images; type: physicochemical
Description: It has the advantage of being able to reduce the particle size to a range of smaller dimensions (according to the requirements of the formulator who prepare the capsule or tablet), while when starting in advance with a smaller size of powder (Form I) limits this option. In addition, small particles, reduce flowability.

[4] = Stability upon heating under extreme heat conditions (oven); type: physicochemical; conditions: 80° C. for 30 min in oven
[5] = % crystallinity calculation using the WinXRD 2.0 program; type: physicochemical; conditions: from XRD
Description: 2.0 program (FIGS. 46, 48, 39, 40, 43, 53, 50, 41).

COc1ccccc1OCCNCC(O)COc1cccc2[nH]c3ccccc3c12.O=P(O)(O)O (centres unmarked) [Amorphous, carvedilol dihydrogen phosphate]
solubility [1]: 14.9 µg/mL

COc1ccccc1OCCNCC(O)COc1cccc2[nH]c3ccccc3c12 (racemic) [carvedilol, (±)-1-(Carbazol-4-yloxy)-3-[[2-(o-methoxyphenoxy)ethyl]amino]-2-propanol]
solubility ([2]; in alkaline media): < 1 µg/mL
solubility ([2]; increases with decreasing pH, upper value): up to 100 μg/mL

COc1ccccc1OCCNCC(O)COc1cccc2[nH]c3ccccc3c12.O=P(O)(O)O (centres unmarked) [Form Y, carvedilol dihydrogen phosphate]
particle size dimensions ([3]; listed as Y): 20-100 μm

COc1ccccc1OCCNCC(O)COc1cccc2[nH]c3ccccc3c12.O=P(O)(O)O (centres unmarked) [Form IV, reference compound]
stability upon heating (solid form) [4]: transforms to amorphous form

COc1ccccc1OCCNCC(O)COc1cccc2[nH]c3ccccc3c12.O=P(O)(O)O (centres unmarked) [Form L, carvedilol dihydrogen phosphate]
stability upon heating (solid form) ([4]; listed as L): stable upon heating
% crystallinity ([5]; listed as L): about 88%

COc1ccccc1OCCNCC(O)COc1cccc2[nH]c3ccccc3c12.O=P(O)(O)O (centres unmarked) [Form L1, carvedilol dihydrogen phosphate]
stability upon heating (solid form) ([4]; listed as L1): stable upon heating
% crystallinity ([5]; listed as L1): about 85%

COc1ccccc1OCCNCC(O)COc1cccc2[nH]c3ccccc3c12.O=P(O)(O)O (centres unmarked) [Form N, carvedilol dihydrogen phosphate]
% crystallinity ([5]; listed as N): about 86%
particle size dimensions ([3]; listed as N): 200-400 μm

COc1ccccc1OCCNCC(O)COc1cccc2[nH]c3ccccc3c12.O=P(O)(O)O (centres unmarked) [Form P, carvedilol dihydrogen phosphate]
% crystallinity ([5]; listed as P): about 85%

COc1ccccc1OCCNCC(O)COc1cccc2[nH]c3ccccc3c12.O=P(O)(O)O (centres unmarked) [Form R, carvedilol dihydrogen phosphate]
stability upon heating (solid form) ([4]; listed as R): stable upon heating
% crystallinity ([5]; listed as R): about 86%

COc1ccccc1OCCNCC(O)COc1cccc2[nH]c3ccccc3c12.O=P(O)(O)O (centres unmarked) [Form F1, carvedilol dihydrogen phosphate]
stability upon heating (solid form) ([4]; listed as F1): stable upon heating
% crystallinity ([5]; listed as F1): about 86%
particle size dimensions ([3]; listed as F1): 50-150 μm

COc1ccccc1OCCNCC(O)COc1cccc2[nH]c3ccccc3c12.O=P(O)(O)O (centres unmarked) [Form I, carvedilol dihydrogen phosphate]
solubility ([1]; listed as I (′027)): 9.6 µg/mL
% crystallinity ([5]; listed as I): about 68%
particle size dimensions ([3]; listed as I): less than 20 μm

COc1ccccc1OCCNCC(O)COc1cccc2[nH]c3ccccc3c12.O=P(O)(O)O (centres unmarked) [Form F, carvedilol dihydrogen phosphate]
stability upon heating (solid form) ([4]; listed as F): stable upon heating
% crystallinity ([5]; listed as F): about 87%
particle size dimensions ([3]; listed as F): 50-200 μm
